Several values for one entry are separate records, joined by “and”; a condition that tells them apart may be missing. Identical values can stand only once. Like-named read-outs stand apart in the source and are kept apart here.
Protocol: A submicron dispersion of naproxen was prepared using the enhanced initial dispersion followed by a secondary high shear mixing process. The following equipment was used for the experiment:
(1) An Ivek Digispense 3009 controller with an AP motor/base assembly and a AA pump body.
(2) A Micronoson Ultrasonic Cell Distruptor, XL 100 watt ultrasonic controller and a Misonix 22.5 kHz ultrasonic transducer horn with a coaxillal center feed.
(3) Microfluidizer—Microfluidics M-110EH-25 high shear processor with a 75 micron F-20Y interaction chamber.
(4) Horiba LA-950 Laser Diffraction Particle Size Analyzer.
The Ivek Digispense pump speed was calibrated to 20 mL/min.
The end of the ultrasonic horn, also referred to as an ultrasonic probe, was suspended in air, the power to the Ivek pump and the ultrasonic probe was turned on. Ultrasonic power was set to 20 watts. The height of the ultrasonic probe dispense tubing was adjusted until the feed liquid was dispersed as small droplets, thereby creating a fine spray. The tubing was fixed at this height, as above and below this height, dispensed liquid simply drips from the probe.
The tip of the ultrasonic transducer horn was secured just above the check valve in the feed reservoir. The antisolvent was a 0.5% Triton X-100 in dionized water, and 190 mL of the antisolvent was added to the inlet reservoir of the Microfluidizer. Naproxen has a tendency to agglomerate, therefore, nonionic Triton X-100 surfactant was used as the antisolvent.
DMSO was used as the solvent and it contained 13.75 g naproxen per 100 mL solvent. An ice bath was used to chill the sample to avoid over heating with multiple passes.
The microfluidizer pressure was set to 24,000 psi, using the antisolvent. […] The outlet from the cooling coil of the microfluidizer was placed in the inlet reservoir to allow for recycling of the process. The Ivek Pump was set for 20 mL/min.
With the Microfluidizer running at 24,000 psi in a recirculation mode the Pump and Ulrasonic Probe were simutaneously turned on for 30 seconds and then immediately turned off. A single pass sample was collected for particle size analyzsis. This sample contained 1.375 grams of naproxen in the mixed solution of DMSO & 0.5% triton X-100 DI water. The Microfluidizer continued to run for an additional 150 seconds for a total of 180 seconds. After six passes, a sample was collected to evaulate particle size.
The graph presented in FIG. 3 is a plot of naproxen particle diameter (x axis) vs. frequency of occurrence of the particle diameter (y axis). Table 6 provides the mean and median particle size for each run.

[1] = no ultrasonic step, 1 pass through Microfluidizer at 24,000 psi
[2] = no ultrasonic step, 6 passes through Microfluidizer at 24,000 psi
[3] = with ultrasonic initial mixing, 1 pass through Microfluidizer at 24,000 psi, DMSO / 0.5% Triton X-100 in water
[4] = with ultrasonic initial mixing, 6 passes through Microfluidizer at 24,000 psi, DMSO / 0.5% Triton X-100 in water

Mean Particle Size [1]: 4.65 μm and 8.199 μm
Median particle size [1]: 4.784 μm and 8.324 μm
Mean Particle Size [2]: 2.4845 μm and 2.47 μm
Median particle size [2]: 1.214 μm and 1.696 μm
Mean Particle Size [3]: 1.021 μm and 1.257 μm
Median particle size [3]: 0.3267 μm and 0.6459 μm
Mean Particle Size [4]: 0.6051 μm and 0.606 μm
Median particle size [4]: 0.5067 μm and 0.4602 μm
median naproxen particle size (diameter) (with ultrasonic initial mixing, regardless of how many passes were employed): less than 1 μm
SMILES: COc1ccc2cc([C@H](C)C(=O)O)ccc2c1 [naproxen]
